In US10336729B2, “4-cyano-benzyl carbamimidoylcarbamate derivatives and their use as AOC3 inhibitors” (Boehringer Ingelheim International GmbH, priority 2016, dated 2019):

molecular target: AOC3 (Homo sapiens (Human), UniProt Q16853); assay: MAO-Glo AOC3 assay; type: biochemical; settings: recombinant CHO cells overexpressing AOC3 enzyme
From the text: The MAO-Glo™ Assay (commercial available from PROMEGA, #V1402) provides a sensitive method for the measurement of monoamine oxidase (MAO) activity (Valley, M. P. et al., 2006, Anal. Biochem. 359: 238-246) from a variety of tissues, biofluids or recombinant expressed or purified enzymes. As substrate a derivate of the beetle luciferin ((4S)-4,5-dihydro-2-(6-hydroxybenzothiazolyl)-4-thiazole-carboxylic acid) is used, which is oxidized at a primary amine moiety. After a spontaneous elimination and a catalyzed esterase reaction, the turnover of the luciferine by the luciferase is recorded as a signal of AOC3 activity.
An aliquot of 3 μL of the compound dilution is added to a 384 well plate (Optiplate, PS, flat bottom, white, PERKIN ELMER, #6007290) with a final DMSO concentration of 6.6%. Recombinant CHO cells, overexpressing the human (1500 cells/well), mouse (1000 cells/well) or rat (500 cells/well) AOC3 enzyme are diluted in reaction buffer and added in a volume of 15 μL to the wells. After incubation for 20 minutes at 37° C., 2 μL of MAO substrate (dissolved in DMSO at 16 mM, adjusted to assay concentration in reaction buffer to a final assay concentration of 20 μM) is added and further incubated for 60 minutes at 37° C. The turnover of the substrate is determined by the addition of 20 μL of the detection-mix which was generated by the addition of reconstitution buffer with esterase (PROMEGA, #V1402) to the luciferine detection reagent (PROMEGA, #V1402). After an incubation period of 20 minutes, the luminescent signal is measured with Envision 2104 Multilabel Reader (PERKIN ELMER).

AOC3, sequence (Q16853 whole entry): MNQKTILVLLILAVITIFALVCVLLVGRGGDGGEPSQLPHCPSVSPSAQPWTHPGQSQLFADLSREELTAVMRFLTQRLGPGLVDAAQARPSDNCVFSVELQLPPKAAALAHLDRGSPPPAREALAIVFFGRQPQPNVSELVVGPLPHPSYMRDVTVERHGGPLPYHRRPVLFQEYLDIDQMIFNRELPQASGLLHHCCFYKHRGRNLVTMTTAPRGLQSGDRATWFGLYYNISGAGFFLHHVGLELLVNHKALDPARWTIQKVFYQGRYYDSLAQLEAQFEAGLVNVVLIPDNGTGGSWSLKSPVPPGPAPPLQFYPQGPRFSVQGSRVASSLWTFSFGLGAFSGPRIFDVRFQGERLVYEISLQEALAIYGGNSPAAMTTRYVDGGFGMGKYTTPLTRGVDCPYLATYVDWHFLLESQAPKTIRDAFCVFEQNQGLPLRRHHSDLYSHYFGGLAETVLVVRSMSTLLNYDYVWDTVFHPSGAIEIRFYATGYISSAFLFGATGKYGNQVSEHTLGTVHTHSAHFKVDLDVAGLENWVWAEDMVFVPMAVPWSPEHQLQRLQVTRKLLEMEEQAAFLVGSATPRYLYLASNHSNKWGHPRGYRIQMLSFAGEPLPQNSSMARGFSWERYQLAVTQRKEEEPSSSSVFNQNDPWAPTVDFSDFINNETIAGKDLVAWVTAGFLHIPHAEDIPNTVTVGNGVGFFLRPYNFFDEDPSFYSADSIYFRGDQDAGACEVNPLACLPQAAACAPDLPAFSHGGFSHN

Row | SMILES | IC50 [nM]
1 | N#Cc1ccc(N2CCN(c3c(C#N)ccc(COC(=O)NC(=N)N)c3F)CC2)c(F)c1 [Example 1.045] | 29
2 | COc1cccc(C2=CCN(c3c(C#N)ccc(COC(=O)NC(=N)N)c3F)CC2)c1 [Example 1.061] | 30
3 | N#Cc1ccc(COC(=O)NC(=N)N)c(F)c1N1CC(c2ccccn2)C1 [Example 1.087] | 470
4 | CCc1ccc(N2CCN(c3c(C#N)ccc(COC(=O)NC(=N)N)c3F)CC2)cc1 [Example 1.060] | 334
5 | Cc1cnc(C2=CCN(c3c(C#N)ccc(COC(=O)NC(=N)N)c3F)CC2)nc1 [Example 1.075] | 85
6 | N#Cc1ccc(COC(=O)NC(=N)N)c(F)c1N1CCC(N2CCC(O)CC2)CC1 [Example 1.089] | 56
7 | N#Cc1ccc(COC(=O)NC(=N)N)c(F)c1N1CCC(c2nnco2)CC1 [Example 2.006] | 33
8 | CN(C)c1ccc(N2CCN(c3c(C#N)ccc(COC(=O)NC(=N)N)c3F)CC2)nn1 [Example 1.064] | 33
9 | N#Cc1ccc(COC(=O)NC(=N)N)c(F)c1N1CCN(c2ccccn2)CC1 [Example 1.051] | 271
10 | N#Cc1ccc(COC(=O)NC(=N)N)c(F)c1N1CCC(N2CCCC2=O)CC1 [Example 1.088] | 889
11 | N#Cc1ccc(COC(=O)NC(=N)N)c(F)c1N1CCC(c2ncc(Cl)cn2)CC1 [Example 1.037] | 54
12 | N#Cc1ccc(COC(=O)NC(=N)N)c(F)c1N1CC=C(c2ccccc2)CC1 [Example 1.046] | 27
13 | N#Cc1ccc(COC(=O)NC(=N)N)c(F)c1N1CCC(c2ccc(C(F)(F)F)cc2)CC1 [Example 1.084] | 502
14 | COc1cnc(C2=CCN(c3c(C#N)ccc(COC(=O)NC(=N)N)c3F)CC2)nc1 [Example 1.067] | 77
15 | COc1cnc(C2CCN(c3c(C#N)ccc(COC(=O)NC(=N)N)c3F)CC2)nc1 [Example 1.032] | 110
16 | N#Cc1ccc(COC(=O)NC(=N)N)c(F)c1N1CCC(N2CCC(C(N)=O)CC2)CC1 [Example 1.024] | 50
17 | Cc1cc(C)cc(N2CCN(c3c(C#N)ccc(COC(=O)NC(=N)N)c3F)CC2)c1 [Example 1.052] | 146
18 | N#Cc1ccc(N2CCN(c3c(C#N)ccc(COC(=O)NC(=N)N)c3F)CC2)nc1 [Example 1.055] | 115
19 | COc1ccc(N2CCN(c3c(C#N)ccc(COC(=O)NC(=N)N)c3F)CC2)cc1 [Example 1.074] | 128
20 | N#Cc1ccc(COC(=O)NC(=N)N)c(F)c1N1CCC(c2ccc(Cl)cc2)CC1 [Example 1.049] | 102
21 | Cc1ccc(N2CCN(c3c(C#N)ccc(COC(=O)NC(=N)N)c3F)CC2)cc1 [Example 1.041] | 177
22 | N#Cc1ccc(COC(=O)NC(=N)N)c(F)c1N1CCCN(c2cccnc2)CC1 [Example 1.011] | 95
23 | CN1CCN(C2CCN(c3c(C#N)ccc(COC(=O)NC(=N)N)c3F)CC2)CC1=O [Example 1.018] | 169

Row | SMILES | IC50 [nM]
24 | CS(=O)(=O)c1ccc(N2CCN(c3c(C#N)ccc(COC(=O)NC(=N)N)c3F)CC2)c(F)c1 [Example 1.042] | 46
25 | CN1CCN(C2CCN(c3c(C#N)ccc(COC(=O)NC(=N)N)c3F)CC2)C(=O)C1 [Example 1.062] | 696
26 | N#Cc1ccc(COC(=O)NC(=N)N)c(F)c1N1CC=C(c2ncccn2)CC1 [Example 1.063] | 34
27 | N#Cc1ccc(COC(=O)NC(=N)N)c(F)c1N1CCN(c2ccccc2F)CC1 [Example 1.059] | 151
28 | N#Cc1ccc(COC(=O)NC(=N)N)c(F)c1N1CCN(c2ccccc2)C(=O)C1 [Example 1.065] | 131
29 | N#Cc1ccc(N2CCN(c3cc(COC(=O)NC(=N)N)c(F)cc3C#N)CC2)cc1 [Example 3.001] | 393
30 | N#Cc1ccc(COC(=O)NC(=N)N)c(F)c1N1CCC(c2nccs2)CC1 [Example 1.030] | 65
31 | COc1cccc(N2CCN(c3c(C#N)ccc(COC(=O)NC(=N)N)c3F)CC2)c1 [Example 1.021] | 21
32 | COc1ccc(C2CCN(c3c(C#N)ccc(COC(=O)NC(=N)N)c3F)CC2)cc1 [Example 1.048] | 82
33 | Cc1cccc(C2CCN(c3c(C#N)ccc(COC(=O)NC(=N)N)c3F)CC2)c1 [Example 1.047] | 65
34 | N#Cc1ccc(COC(=O)NC(=N)N)c(F)c1N1CCC(c2cccc(Cl)c2)CC1 [Example 1.076] | 56
35 | CC(=O)N1CCN(C2CCN(c3c(C#N)ccc(COC(=O)NC(=N)N)c3F)CC2)CC1 [Example 1.003] | 67
36 | CC1CN(c2c(C#N)ccc(COC(=O)NC(=N)N)c2F)CCN1c1ccccc1 (centres unmarked) [Example 1.070] | 64
37 | CC(=O)N1CCC(N2CCN(c3c(C#N)ccc(COC(=O)NC(=N)N)c3F)CC2)CC1 [Example 1.008] | 397
38 | N#Cc1ccc(COC(=O)NC(=N)N)c(F)c1N1CCN(c2ncccn2)CC1 [Example 1.081] | 45
39 | CC(=O)N1CCC(C2CN(c3c(C#N)ccc(COC(=O)NC(=N)N)c3F)C2)CC1 [Example 1.010] | 25
40 | CS(=O)(=O)N1CCC(C2CN(c3c(C#N)ccc(COC(=O)NC(=N)N)c3F)C2)CC1 [Example 1.004] | 24
41 | N#Cc1ccc(COC(=O)NC(=N)N)c(F)c1N1CCC(c2ccccc2)CC1 [Example 1.029] | 71
42 | N#Cc1ccc(COC(=O)NC(=N)N)c(F)c1N1CCN(c2cccnn2)CC1 [Example 1.083] | 34
43 | N#Cc1ccc(COC(=O)NC(=N)N)c(F)c1N1CCN(c2ncncn2)CC1 [Example 1.082] | 57
44 | Cc1ccc(N2CCN(c3c(C#N)ccc(COC(=O)NC(=N)N)c3F)CC2)cc1C [Example 1.086] | 149
45 | N#Cc1ccc(COC(=O)NC(=N)N)c(F)c1N1CCN(c2ccc(C(N)=O)cc2)CC1 [Example 1.058] | 71

Molecules with a lower IC50, results first:

Row | IC50 [nM] | SMILES
46 | 7 | N#Cc1ccc(COC(=O)NC(=N)N)c(F)c1N1CCN(c2ccncc2)CC1 [Example 2.003]
47 | 20 | Cc1cnc(C2CCN(c3c(C#N)ccc(COC(=O)NC(=N)N)c3F)CC2)o1 [Example 2.005]
48 | 4 | COC(=O)N1CCC(C2CCN(c3c(C#N)ccc(COC(=O)NC(=N)N)c3F)CC2)CC1 [Example 1.027]
49 | 20 | N#Cc1ccc(COC(=O)NC(=N)N)c(F)c1N1CCC(C2CCOCC2)CC1 [Example 1.054]
50 | 5 | N#Cc1ccc(COC(=O)NC(=N)N)c(F)c1N1CCC(c2cn3ccccc3n2)CC1 [Example 1.025]
51 | 3 | N#Cc1ccc(N2CCN(c3c(C#N)ccc(COC(=O)NC(=N)N)c3F)CC2)cc1 [Example 1.009]
52 | 4 | N#Cc1ccc(COC(=O)NC(=N)N)c(F)c1N1CCC(c2ccc(C(=O)O)cc2)CC1 [Example 1.035]
53 | 7 | N#Cc1ccc(COC(=O)NC(=N)N)c(F)c1N1CCN(c2ccc(Cl)cn2)CC1 [Example 1.078]
54 | 19 | CC(=O)N[C@@H](C)c1ccc(C2CN(c3c(C#N)ccc(COC(=O)NC(=N)N)c3F)C2)cc1 [Example 1.015]
55 | 20 | Cc1cccc(N2CCN(c3c(C#N)ccc(COC(=O)NC(=N)N)c3F)CC2)c1 [Example 1.066]
56 | 5 | N#Cc1cccc(C2CCN(c3c(C#N)ccc(COC(=O)NC(=N)N)c3F)CC2)c1 [Example 1.022]
57 | 12 | CCOc1cc(C2CCN(c3c(C#N)ccc(COC(=O)NC(=N)N)c3F)CC2)ccn1 [Example 1.016]
58 | 12 | Cc1cnc(C2=CCN(c3c(C#N)ccc(COC(=O)NC(=N)N)c3F)CC2)o1 [Example 1.071]
59 | 9 | N#Cc1ccc(COC(=O)NC(=N)N)c(F)c1N1CCC(C2CCN(S(N)(=O)=O)CC2)CC1 [Example 1.079]
60 | 19 | N#Cc1ccc(C2CN(c3c(C#N)ccc(COC(=O)NC(=N)N)c3F)C2)cc1 [Example 1.013]
61 | 10 | CN(C)Cc1ccc(C2CCN(c3c(C#N)ccc(COC(=O)NC(=N)N)c3F)CC2)cc1 [Example 1.044]
62 | 17 | N#Cc1ccc(COC(=O)NC(=N)N)c(F)c1N1CCC(c2ccncc2)C1 (centres unmarked) [Example 1.019]
63 | 15 | N#Cc1ccc(COC(=O)NC(=N)N)c(F)c1N1CCN(C2CCCC2)C(=O)C1 [Example 1.053]
64 | 6 | N#Cc1ccc(COC(=O)NC(=N)N)c(F)c1N1CC=C(c2ccc(Cl)cc2)CC1 [Example 1.057]
65 | 6 | CS(=O)(=O)c1ccc(N2CCN(c3c(C#N)ccc(COC(=O)NC(=N)N)c3F)CC2)cc1 [Example 1.002]
66 | 14 | N#Cc1ccc(COC(=O)NC(=N)N)c(F)c1N1CCN(c2cccc(F)c2)CC1 [Example 1.028]
67 | 6 | N#Cc1ccc(COC(=O)NC(=N)N)c(F)c1N1CCN(c2cccnc2)CC1 [Example 1.012]
68 | 20 | CCOc1ccc(C2CCN(c3c(C#N)ccc(COC(=O)NC(=N)N)c3F)CC2)cn1 [Example 1.080]
69 | 3 | Cc1cc(N2CCN(c3c(C#N)ccc(COC(=O)NC(=N)N)c3F)CC2)ccn1 [Example 2.004]
70 | 2 | N#Cc1cccc(N2CCN(c3c(C#N)ccc(COC(=O)NC(=N)N)c3F)CC2)c1 [Example 1.040]
71 | 17 | N#Cc1ccc(COC(=O)NC(=N)N)c(F)c1N1CC=C(c2ncco2)CC1 [Example 1.043]
